# Tests used:
# Type in all cases: functional
# [1] = test system: HCC 2998; assay: Cytotoxicity against human HCC2998 cells assessed as cell growth at 100 uM after 48 hrs by sulforhodamine B assay relative to control; settings: HCC 2998, 48 h, read-out: Activity
# [2] = test system: SR; assay: Cytotoxicity against human SR cells assessed as cell growth at 0.01 uM after 48 hrs by sulforhodamine B assay relative to control; settings: read-out: Activity
# [3] = test system: T47D; assay: Cytotoxicity against human T47D cells assessed as cell growth at 100 uM after 48 hrs by sulforhodamine B assay relative to control; settings: read-out: Activity
# [4] = test system: OVCAR-5; assay: Cytotoxicity against human OVCAR5 cells assessed as cell growth at 0.1 uM after 48 hrs by sulforhodamine B assay relative to control; settings: OVCAR-5, 48 h, read-out: Activity
# [5] = test system: HOP-62; assay: Cytotoxicity against human HOP62 cells assessed as cell growth at 100 uM after 48 hrs by sulforhodamine B assay relative to control; settings: HOP-62, 48 h, read-out: Activity
# [6] = test system: SK-MEL-2; assay: Cytotoxicity against human SK-MEL-2 cells assessed as growth inhibition after 48 hrs by sulforhodamine B assay; settings: SK-MEL-2, 48 h
# [7] = test system: PC-3; assay: Cytotoxicity against human PC3 cells assessed as cell growth at 100 uM after 48 hrs by sulforhodamine B assay relative to control; settings: PC-3, 48 h, read-out: Activity
# [8] = test system: RXF 393; assay: Cytotoxicity against human RXF393 cells assessed as cell growth at 0.01 uM after 48 hrs by sulforhodamine B assay relative to control; settings: RXF 393, 48 h, read-out: Activity
# [9] = test system: MDA-MB-468; assay: Cytotoxicity against human MDA-MB-468 cells assessed as cell growth at 0.1 uM after 48 hrs by sulforhodamine B assay relative to control; settings: MDA-MB-468, 48 h, read-out: Activity
# [10] = test system: HT-29; assay: Cytotoxicity against human HT-29 cells assessed as growth inhibition after 48 hrs by sulforhodamine B assay; settings: HT-29, 48 h
# [11] = test system: OVCAR-4; assay: Cytotoxicity against human OVCAR4 cells assessed as cell growth at 10 uM after 48 hrs by sulforhodamine B assay relative to control; settings: OVCAR-4, 48 h, read-out: Activity
# [12] = test system: A498; assay: Cytotoxicity against human A498 cells assessed as growth inhibition after 48 hrs by sulforhodamine B assay; settings: A498, 48 h
# [13] = test system: NCI-H522; assay: Cytotoxicity against human NCI-H522 cells assessed as growth inhibition after 48 hrs by sulforhodamine B assay; settings: NCI-H522, 48 h
# [14] = test system: BT-549; assay: Cytotoxicity against human BT549 cells assessed as growth inhibition after 48 hrs by sulforhodamine B assay; settings: BT-549, 48 h
# [15] = test system: MCF7; assay: Cytotoxicity against human MCF7 cells assessed as cell growth at 10 uM after 48 hrs by sulforhodamine B assay relative to control; settings: MCF7, 48 h, read-out: Activity
# [16] = test system: MOLT-4; assay: Cytotoxicity against human MOLT4 cells assessed as cell growth at 0.1 uM after 48 hrs by sulforhodamine B assay relative to control; settings: MOLT-4, 48 h, read-out: Activity
# [17] = test system: NCI-H226; assay: Cytotoxicity against human NCI-H226 cells assessed as cell growth at 1 uM after 48 hrs by sulforhodamine B assay relative to control; settings: NCI-H226, 48 h, read-out: Activity
# [18] = test system: OVCAR-4; assay: Cytotoxicity against human OVCAR4 cells assessed as cell growth at 0.1 uM after 48 hrs by sulforhodamine B assay relative to control; settings: OVCAR-4, 48 h, read-out: Activity
# [19] = test system: MCF7; assay: Cytotoxicity against human MCF7 cells assessed as cell growth at 100 uM after 48 hrs by sulforhodamine B assay relative to control; settings: MCF7, 48 h, read-out: Activity
# [20] = test system: U-251; assay: Cytotoxicity against human U251 cells assessed as cell growth at 1 uM after 48 hrs by sulforhodamine B assay relative to control; settings: U-251, 48 h, read-out: Activity
# [21] = test system: Hs-578T; assay: Cytotoxicity against human Hs 578T cells assessed as cell growth at 100 uM after 48 hrs by sulforhodamine B assay relative to control; settings: read-out: Activity
# [22] = test system: ACHN; assay: Cytotoxicity against human ACHN cells assessed as cell growth at 100 uM after 48 hrs by sulforhodamine B assay relative to control; settings: read-out: Activity
# [23] = test system: MDA-MB-468; assay: Cytotoxicity against human MDA-MB-468 cells assessed as growth inhibition after 48 hrs by sulforhodamine B assay; settings: MDA-MB-468, 48 h
# [24] = test system: NCI/ADR-RES; assay: Cytotoxicity against human NCI/ADR-RES cells assessed as cell growth at 0.1 uM after 48 hrs by sulforhodamine B assay relative to control; settings: read-out: Activity
# [25] = test system: A549; assay: Cytotoxicity against human A549/ATCC cells assessed as cell growth at 100 uM after 48 hrs by sulforhodamine B assay relative to control; settings: A549, 48 h, read-out: Activity
# [26] = test system: BT-549; assay: Cytotoxicity against human BT549 cells assessed as cell growth at 100 uM after 48 hrs by sulforhodamine B assay relative to control; settings: BT-549, 48 h, read-out: Activity
# [27] = test system: NCI-H460; assay: Cytotoxicity against human NCI-H460 cells assessed as cell growth at 0.01 uM after 48 hrs by sulforhodamine B assay relative to control; settings: NCI-H460, 48 h, read-out: Activity
# [28] = test system: SK-MEL-5; assay: Cytotoxicity against human SK-MEL-5 cells assessed as cell growth at 10 uM after 48 hrs by sulforhodamine B assay relative to control; settings: SK-MEL-5, 48 h, read-out: Activity
# [29] = test system: ACHN; assay: Cytotoxicity against human ACHN cells assessed as cell growth at 0.1 uM after 48 hrs by sulforhodamine B assay relative to control; settings: read-out: Activity
# [30] = test system: NCI-H522; assay: Cytotoxicity against human NCI-H522 cells assessed as cell growth at 100 uM after 48 hrs by sulforhodamine B assay relative to control; settings: NCI-H522, 48 h, read-out: Activity
# [31] = test system: NCI-H226; assay: Cytotoxicity against human NCI-H226 cells assessed as cell growth at 0.1 uM after 48 hrs by sulforhodamine B assay relative to control; settings: NCI-H226, 48 h, read-out: Activity
# [32] = test system: Malme-3M; assay: Cytotoxicity against human MALME-3M cells assessed as cell growth at 10 uM after 48 hrs by sulforhodamine B assay relative to control; settings: read-out: Activity
# [33] = test system: ACHN; assay: Cytotoxicity against human ACHN cells assessed as cell growth at 1 uM after 48 hrs by sulforhodamine B assay relative to control; settings: read-out: Activity
# [34] = test system: BT-549; assay: Cytotoxicity against human BT549 cells assessed as cell growth at 1 uM after 48 hrs by sulforhodamine B assay relative to control; settings: BT-549, 48 h, read-out: Activity
# [35] = test system: SNB-19; assay: Cytotoxicity against human SNB19 cells assessed as cell growth at 0.01 uM after 48 hrs by sulforhodamine B assay relative to control; settings: SNB-19, 48 h, read-out: Activity
# [36] = test system: T47D; assay: Cytotoxicity against human T47D cells assessed as cell growth at 10 uM after 48 hrs by sulforhodamine B assay relative to control; settings: read-out: Activity
# [37] = test system: A549; assay: Cytotoxicity against human A549/ATCC cells assessed as cell growth at 10 uM after 48 hrs by sulforhodamine B assay relative to control; settings: A549, 48 h, read-out: Activity
compound,measurement,setting,value
COc1ccc(C(=O)/C=C/c2cc(-c3cc(OC)c(OC)c(OC)c3)n[nH]2)cc1OC,growth at 100 µM,[1],-86%
same,growth at 0.01 µM,[2],100%
same,growth at 100 µM,[3],-46%
same,growth at 0.1 µM,[4],88%
same,growth at 100 µM,[5],-98%
same,LC50 (concentration killing 50% of cells),[6],6.68 µM
same,TGI,[6],3.51 µM
same,growth at 100 µM,[7],-95%
same,growth at 0.01 µM,[8],100%
same,growth at 0.1 µM,[9],89%
same,LC50,[10],5.75 µM
same,TGI,[10],3.05 µM
same,growth at 10 µM,[11],23%
same,LC50,[12],6 µM
same,TGI,[12],2.98 µM
same,LC50,[13],0.825 µM
same,TGI,[13],390 nM
same,LC50 (concentration killing 50% of cells),[14],5.87 µM
same,TGI,[14],2900 nM
same,growth at 10 µM,[15],-76%
same,growth at 0.1 µM,[16],98%
same,growth at 1 µM,[17],89%
same,growth at 0.1 µM,[18],96%
same,growth at 100 µM,[19],-66%
same,growth at 1 µM,[20],65%
same,growth at 100 µM,[21],-15%
same,growth at 100 µM,[22],-91%
same,GI50,[23],750 nM
same,LC50,[23],5.21 µM
same,TGI,[23],2180 nM
same,growth at 0.1 µM,[24],95%
same,growth at 100 µM,[25],-78%
same,growth at 100 µM,[26],-75%
same,growth at 0.01 µM,[27],103%
same,growth at 10 µM,[28],-98%
same,growth at 0.1 µM,[29],97%
same,growth at 100 µM,[30],-97%
same,growth at 0.1 µM,[31],97%
same,growth at 10 µM,[32],-82%
same,growth at 1 µM,[33],91%
same,growth at 1 µM,[34],76%
same,growth at 0.01 µM,[35],91%
same,growth at 10 µM,[36],-42%
same,growth at 10 µM,[37],-43%
COc1ccc(-c2cc(/C=C/C(=O)c3cc(OC)c(OC)c(OC)c3)[nH]n2)cc1OC,growth at 100 µM,[1],-82%
same,growth at 0.01 µM,[2],93%
same,growth at 100 µM,[3],-47%
same,growth at 0.1 µM,[4],92%
same,growth at 100 µM,[5],-84%
same,GI50,[6],2690 nM
same,LC50 (concentration killing 50% of cells),[6],29.5 µM
same,TGI,[6],7.7 µM
same,growth at 100 µM,[7],-74%
same,growth at 0.01 µM,[8],103%
same,growth at 0.1 µM,[9],91%
same,GI50,[10],1300 nM
same,LC50,[10],5.75 µM
same,TGI,[10],2.73 µM
same,growth at 10 µM,[11],-11%
same,GI50,[12],1460 nM
same,LC50,[12],22.3 µM
same,TGI,[12],4.99 µM
same,GI50,[13],1330 nM
same,LC50,[13],5.39 µM
same,TGI,[13],2680 nM
same,GI50,[14],1360 nM
same,LC50 (concentration killing 50% of cells),[14],6.32 µM
same,TGI,[14],2930 nM
same,growth at 10 µM,[15],-81%
same,growth at 0.1 µM,[16],95%
same,growth at 1 µM,[17],73%
same,growth at 0.1 µM,[18],73%
same,growth at 100 µM,[19],-43%
same,growth at 1 µM,[20],65%
same,growth at 100 µM,[21],-16%
same,growth at 100 µM,[22],-84%
same,GI50,[23],1330 nM
same,LC50,[23],8.03 µM
same,TGI,[23],3270 nM
same,growth at 0.1 µM,[24],97%
same,growth at 100 µM,[25],-62%
same,growth at 100 µM,[26],-93%
same,growth at 0.01 µM,[27],100%
same,growth at 10 µM,[28],-99%
same,growth at 0.1 µM,[29],91%
same,growth at 100 µM,[30],-90%
same,growth at 0.1 µM,[31],90%
same,growth at 10 µM,[32],-25%
same,growth at 1 µM,[33],78%
same,growth at 1 µM,[34],70%
same,growth at 0.01 µM,[35],91%
same,growth at 10 µM,[36],-37%
same,growth at 10 µM,[37],-2%
COc1cc(C(=O)/C=C/c2cc(-c3cc(OC)c(OC)c(OC)c3)n[nH]2)cc(OC)c1OC,growth at 100 µM,[1],-89%
same,growth at 0.01 µM,[2],111%
same,growth at 100 µM,[3],-92%
same,growth at 0.1 µM,[4],101%
same,growth at 100 µM,[5],-100%
same,LC50 (concentration killing 50% of cells),[6],8.32 µM
same,TGI,[6],4.04 µM
same,growth at 100 µM,[7],-94%
same,growth at 0.01 µM,[8],93%
same,growth at 0.1 µM,[9],84%
same,LC50,[10],6.36 µM
same,TGI,[10],3.37 µM
same,growth at 10 µM,[11],-100%
same,LC50,[12],8.02 µM
same,TGI,[12],3.59 µM
same,LC50,[13],4.22 µM
same,TGI,[13],1700 nM
same,LC50 (concentration killing 50% of cells),[14],5.6 µM
same,TGI,[14],2960 nM
same,growth at 10 µM,[15],-85%
same,growth at 0.1 µM,[16],112%
same,growth at 1 µM,[17],86%
same,growth at 0.1 µM,[18],95%
same,growth at 100 µM,[19],-72%
same,growth at 1 µM,[20],83%
same,growth at 100 µM,[21],-4%
same,growth at 100 µM,[22],-98%
same,GI50,[23],1150 nM
same,LC50,[23],5.37 µM
same,TGI,[23],2480 nM
same,growth at 0.1 µM,[24],106%
same,growth at 100 µM,[25],-66%
same,growth at 100 µM,[26],-94%
same,growth at 0.01 µM,[27],102%
same,growth at 10 µM,[28],-98%
same,growth at 0.1 µM,[29],100%
same,growth at 100 µM,[30],-98%
same,growth at 0.1 µM,[31],93%
same,growth at 10 µM,[32],-57%
same,growth at 1 µM,[33],89%
same,growth at 1 µM,[34],85%
same,growth at 0.01 µM,[35],92%
same,growth at 10 µM,[36],-82%
same,growth at 10 µM,[37],6%

# Source: ChEMBL document CHEMBL4138123, “Design, synthesis and biological evaluation of novel pyrazolochalcones as potential modulators of PI3K/Akt/mTOR pathway and inducers of apoptosis in breast cancer cells” (Eur J Med Chem, 2017)
